The source of these data is patent US8927580B2, “Thiosemicarbazone compounds and use in the treatment of cancer” (Oncochel Therapeutics LLC, priority 2010, dated 2015).

The test system of data set [1] is PANC 1 pancreatic cancer cells. Description: MTT proliferation assay, PANC 1. It counts as cell-based. Particulars: Homo sapiens; PANC 1, MTT, 72 h. Here is the method: (§1) The pancreatic cancer cell lines, including MIAPaCa-2, PANC 1, CAPAN-2 and CFPAC-1 were a generous gift from Prof. Andrew Biankin (Garvan Institute, NSW, Australia). The MIAPaCa-2, PANC 1 and CFPAC-1 cell lines were grown in DMEM medium (Invitrogen) and CAPAN-2 cells were grown in McCoy's medium (Invitrogen). All media was supplemented with 10% (v/v) fetal calf serum (Invitrogen), 1% (v/v) non-essential amino acids (Invitrogen), 1% (v/v) sodium pyruvate (Invitrogen), 2 mM L-glutamine (Invitrogen), 100 μg/mL of streptomycin (Invitrogen), 100 U/ml penicillin (Invitrogen), and 0.28 μg/mL of fungizone.
(§2) To further examine the spectrum of anti-proliferative activity, Dp4cycH4mT was tested against pancreatic cancer in vitro, performing MTT proliferation assays with PANC 1, MIAPaCa-2, CFPAC-1 and CAPAN-2 pancreatic cancer cells. As a comparison, currently used treatments for pancreatic cancer including gemcitabine and 5-fluorouracil were also tested. The iron chelator, DFO, was included as a positive control.
(§3) Table 2A. Anti-proliferative activity of Dp4cycH4mT against pancreatic cancer cell lines. Growth and antiproliferative activity IC50 (μM) values of Dp4cycH4mT in a variety of pancreatic cell lines and in comparison to DFO and the clinically used drugs gemcitabine and 5-fluorouracil as determined by the MTT assay. Cells were seeded and allowed to attach to wells for 24 h and then incubated for 72 h at 37° C. with control medium or the chelators. Results are mean±SD (3 experiments).
(§4) Table 2B. Anti-proliferative activity of Dp4cycH4mT against pancreatic cancer cell lines. IC90 (μM) values of Dp4cycH4mT in a variety of pancreatic cell lines and in comparison to DFO and the clinically used drugs gemcitabine and 5-fluorouracil as determined by the MTT assay. Cells were seeded and allowed to attach to wells for 24 h and then incubated for 72 h at 37° C. with control medium or the chelators. Results are mean±SD (3 experiments).
On the technique in general: Tetrazolium assays rely on reduction of a dye to a coloured formazan, in cell work by metabolically active cells.

For data set [2], the system named is MIAPaCa-2 pancreatic cancer cells. Description: MTT proliferation assay, MIAPaCa-2. It counts as cell-based. Particulars: Homo sapiens, MIA PaCa-2; MIAPaCa-2, MTT, 72 h. Here is the method: as §1, §2, §3, §4
The next data set deals with metmyoglobin (metMb). Description: metMb formation in vivo. Details: species or system C57BL6 mice. The conditions noted are these: 6 mg/kg intravenously, 30 min post-administration, heart. As for the experimental part:
FIG. 14. Effect of thiosemicarbazone chelators on metMb-formation in vivo. MetMb levels after Dp44mT Triapine® or Dp4cycH4mT treatment in vivo at a dose of 6 mg/kg administered intravenously via the tail vein. Mice in the control group were treated with vehicle alone. At 30 min post-administration, whole hearts were collected for determination of metMb levels.
Mouse heart tissue was exhaustively perfused with ice-cold HBSS to remove blood and homogenized in ice-cold HBSS containing protease inhibitor cocktail (Roche, Basel, Switzerland). Heart homogenates were centrifuged (16,000×xg/45 min/4° C.) and the supernatant ([oxyMb]=50 μM) used immediately.
The levels of metHb and metMb in RBC lysates were determined using a Shimadzu UV-Vis spectrophotometer (UV-1800; Shimadzu Corporation, Kyoto, Japan) at 577 nm and 630 nm for metHb and metMb in accordance with published methods (Winterbourn CC and Carrell R W (1977). Biochem J 165: 141-148).
C57BL6 mice (7-8 weeks-old) were used under a protocol approved by the university of Sydney Animal Ethics Committee. Dp44mT, Triapine® or Dp4cycH4mT (all at 6 mg/kg) were dissolved in 30% propylene glycol/saline and administered iv via the tail vein. Subsequently, 30 min after administration, mice were anesthetized with isoflurane and blood samples obtained by cardiac puncture. Blood samples were lysed with 2.5 volumes of ultrapure water for metHb estimation. Mice were sacrificed with isoflurane, the heart exhaustively perfused with HBSS and Mb isolated.

Another data set has as its system NDRG1. Briefly: Western blot analysis, NDRG1 expression. It is filed as cell-based. Particulars: MIAPaCa-2 cells. As for the experimental part:
(§5) Western analysis was performed via established protocols (Gao, J. and D. R. Richardson (2001). Blood 98: 842-50). The primary antibodies used were against NDRG1 (Abcam; UK), p21, cyclin D1, transferrin receptor 1 (TfR1; Santa Cruz, CA, USA) and β-actin (Sigma-Aldrich), with secondary HRP-conjugated goat and mouse antibodies (Sigma-Aldrich).
(§6) Dp4cycH4mT was examined to determine whether it could up-regulate NDRG-1 expression. To further evaluate the effect of the chelator Dp4cycH4mT on other key molecules involved in cell cycle progression, the expression of the cyclin-dependent kinase inhibitor, p21, as well as cyclin D1 in MIAPaCa-2 cells was also examined.
(A western blot detects proteins with antibodies after separation by electrophoresis.)

The test system of the next data set is p21. Briefly: Western blot analysis, p21 expression. It counts as cell-based. Particulars: MIAPaCa-2 cells. Here is the method: as §5, §6
A further data set has as its system cyclin D1. Description: Western blot analysis, cyclin D1 levels. It counts as cell-based. Particulars: MIAPaCa-2 cells. As for the experimental part:
as §5, §6

Data set [3] concerns SK-N-MC neuroepithelioma cells. Description: Iron efflux assay (59Fe release from pre-labeled cells). It is filed as cell-based, human. Particulars: 25 μM chelator, 3 h at 37° C. Here is the method: The culture dishes were then placed on ice, the supernatant containing excess ^59Fe-Tf was aspirated and the cells washed 4 times with ice-cold PBS. […] After 3 h the culture dishes were again placed on ice, the media was collected in counting tubes and this provided a measurement of released ^59Fe. Ice-cold PBS (1 mL) was added to plates containing cells and cells were scraped from the plastic surface using a Teflon spatula and also collected in counting tubes. These tubes represent the intracellular ^59Fe content. Results are expressed as total ^59Fe released as a percentage of total ^59Fe present. Radioactivity was measured using a Wallac Wizard 3″ Gamma Counter (PerkinElmer, MA, USA).

Data set [4] has as its system pancreatic cancer cell lines. Description: MTT proliferation assays, pancreatic cancer cell line panel (comparison of IC50). It counts as cell-based. The conditions noted are these: in 2 out of the 4 cell types. Here is the method:
as §1, §2
Table 2A. Anti-proliferative activity of Dp4cycH4mT against pancreatic cancer cell lines. […]. Cells were seeded and allowed to attach to wells for 24 h and then incubated for 72 h at 37° C. with control medium or the chelators. Results are mean±SD (3 experiments).

The subject of data set [5] is PANC 1 human pancreatic carcinoma. Description: PANC 1 xenograft in nude mice: tumour growth. It counts as in vivo, nude mice (BALBc nu/nu). The conditions noted are these: Dp4cycH4mT 5 mg/kg/day i.v. Here is the method:
FIG. 5). […] (5 mg/kg) or vehicle control.

A word on the IC50: it is the point on the concentration scale where inhibition reaches its midpoint. Low values mean greater potency, high ones weaker potency. The IC90 is the point of the concentration-response curve where the effect stands at 90%. Turning to `CN(C(=S)NN=C(c1ccccn1)c1ccccn1)C1CCCCC1` [Dp4cycH4mT, di-2-pyridylketone 4-cyclohexyl-4-methyl-3-thiosemicarbazone], in data set [1], the half-inhibitory concentration (IC50) was 50 ± 2 nM and the IC90 is > 5 µM. Besides, in [2], the IC50 was 9 ± 0.3 nM and the concentration for an effect of 90% (IC90) is > 5 µM. The “levels of metMb” value with metmyoglobin (metMb) is on record as 31.7±3.2%. Besides, the NDRG1 expression result in the data set with NDRG1 is on record as “significantly (p<0.01) up-regulated”. Further, in the data set with p21, the p21 expression entry is listed as “markedly (p<0.05) increasing”. In addition, in the data set on cyclin D1, the “cyclin D1 levels” value was “significantly (p<0.05) reduced”. The “cellular 59Fe mobilised (59Fe released as percentage of total 59Fe)” value in data set [3] was found to be 22%. For the same compound, in data set [4], the “IC50 fold lower compared to 5-fluorouracil” value was ≥ 1000 fold and the “IC50 fold lower compared to gemcitabine” value is reported as “at least 100 fold”. In data set [5], this compound came in with a Tumour weight of 0.04 ± 0.01 g.
